# Experimental data taken from paper PMC7961521 (2021).
# Experiments:
# [1] = tested on: 3G (DNA, G4) TTAGGGTTAGGGTTAGGGTTACCTAGGCATCCTCCAGTTCCTGGAGTCAGTG; assay: fluorescent dye displacement; settings: 100 mM KCl; 10 mM Tris-HCl pH 7.2; B6,5 1 µM displaced; 0.5 µM nucleic acid
# [2] = tested on: 4G (DNA, G4) AGGGTTAGGGTTAGGGTTAGGGTTACCTAGGCATCCTCCAGTTCCTGGAGTCAGTG; assay: fluorescent dye displacement; settings: 100 mM KCl; 10 mM Tris-HCl pH 7.2; B6,5 1 µM displaced; 0.5 µM nucleic acid
# [3] = tested on: RG4 (RNA, G4) AAGGAAGGGGAAGUCAGGUGGGGCCUGGGGAACCAGGAAGCGGGGAACAGG; assay: fluorescent dye displacement; settings: 100 mM KCl; 10 mM Tris-HCl pH 7.2; B6,5 1 µM displaced; 0.5 µM nucleic acid; 1 equivalent of ligand
# [4] = tested on: 3G (DNA, G4) TTAGGGTTAGGGTTAGGGTTACCTAGGCATCCTCCAGTTCCTGGAGTCAGTG; assay: fluorescence, reporter dye in displacement assay; settings: 100 mM KCl; 10 mM Tris-HCl pH 7.2; dye 1 µM, DNA 0.5 µM
# [5] = tested on: 4G (DNA, G4) AGGGTTAGGGTTAGGGTTAGGGTTACCTAGGCATCCTCCAGTTCCTGGAGTCAGTG; assay: fluorescence, reporter dye in displacement assay; settings: 100 mM KCl; 10 mM Tris-HCl pH 7.2; dye 1 µM, DNA 0.5 µM
# [6] = tested on: 4G (DNA, G4) AGGGTTAGGGTTAGGGTTAGGGTTACCTAGGCATCCTCCAGTTCCTGGAGTCAGTG; assay: fluorescence Job's plot; settings: 100 mM KCl; 1×PBS pH 7.4, 37 °C; total concentration 5 µM
# [7] = tested on: RG4 (RNA, G4) AAGGAAGGGGAAGUCAGGUGGGGCCUGGGGAACCAGGAAGCGGGGAACAGG; assay: fluorescence Job's plot; settings: 100 mM KCl; 1×PBS pH 7.4, 37 °C; total concentration 5 µM
# [8] = tested on: 3G template annealed to primer P31 (DNA, G4) TTAGGGTTAGGGTTAGGGTTACCTAGGCATCCTCCAGTTCCTGGAGTCAGTG/CACTGACTCCAGGAACTGGAGGATGCCTAGG; assay: Taq polymerase stop assay; settings: 100 mM KCl, Mg2+; Tris-HCl pH 8.0; 0 to 100 µM ligand; extension at 40 °C
# [9] = tested on: 4G template annealed to primer P31 (DNA, G4) AGGGTTAGGGTTAGGGTTAGGGTTACCTAGGCATCCTCCAGTTCCTGGAGTCAGTG/CACTGACTCCAGGAACTGGAGGATGCCTAGG; assay: Taq polymerase stop assay; settings: 100 mM KCl, Mg2+; Tris-HCl pH 8.0; 0 to 100 µM ligand; extension at 40 °C
# [10] = tested on: H50 template annealed to primer H50/c49 (DNA, G4) AGGGTTAGGGTTAGGGTTAGGGGCCACCGCAATTGCTATAGTGAGTCGT/ACGACTCACTATAGCAATTGCG; assay: Taq polymerase stop assay; settings: 100 mM KCl, Mg2+; Tris-HCl pH 8.0; extension at 40 °C
# [11] = tested on: c49 (C49) template annealed to primer H50/c49 (DNA, G4) TGAGGGTGGGGAGGGTGGGGAAGCCACCGCAATTGCTATAGTGAGTCGT/ACGACTCACTATAGCAATTGCG; assay: Taq polymerase stop assay; settings: 100 mM KCl, Mg2+; Tris-HCl pH 8.0; extension at 50 °C
SMILES,binding [1],binding [2],"% displacement of B6,5 [3] [%]",binding [4],other results
CN1C(=Cc2cc[n+](C)c3ccccc23)Sc2ccccc21,,,,yes,binding [5]: yes
CN1CCC[C@H]1CCNC(=O)c1cn2c3c(c(N4CCC(c5cnccn5)C4)c(F)cc3c1=O)Oc1cc3ccccc3cc1-2 (some centres unmarked),yes,yes,> 60,,
C[n+]1ccc(-c2c3nc(c(-c4cc[n+](C)cc4)c4ccc([nH]4)c(-c4cc[n+](C)cc4)c4nc(c(-c5cc[n+](C)cc5)c5ccc2[nH]5)C=C4)C=C3)cc1,yes,yes,> 60,,
C1=C2Sc3ccccc3N2CCCCCCN2C(=C/C=C/C=C/c3sc4ccccc4[n+]3CCCCCC[n+]3c(sc4ccccc43)/C=C/C=C/1)Sc1ccccc12,,,,yes,binding [6]: yes; binding [7]: yes; binding [8]: yes; binding [9]: yes; binding [10]: yes; binding [11]: yes

# Continued, in another order:
binding [1],binding [2],"% displacement of B6,5 [3] [%]",binding [4],SMILES,other results
weak,yes,> 60,,O=C(c1cc(Cc2n[nH]c(=O)c3ccccc23)ccc1F)N1CCN(C(=O)C2CC2)CC1,
weak,yes,,,O=C(/C=C/C=C/c1ccc2c(c1)OCO2)N1CCCCC1,
